Experimental findings from ChEMBL document CHEMBL1955780, “In silico scaffold evaluation and solid phase approach to identify new gelatinase inhibitors” (Bioorg Med Chem, 2012) are described below.

The target in test [1] is Matrix metalloproteinase-9 (Homo sapiens, UniProt P14780). Nature of the test: Inhibition of MMP9 catalytic domain using Mca-Pro-Leu-Gly-Leu-Dpa-Ala-Arg-NH2 as substrate preincubated for 1 hr prior substrate addition measured after 3 hrs by spectrofluorimetry.
The target of test [2] is 72 kDa type IV collagenase (Homo sapiens, UniProt P08253). The experiment in a line: Inhibition of full length MMP2 using Mca-Pro-Leu-Gly-Leu-Dpa-Ala-Arg-NH2 as substrate preincubated for 1 hr prior substrate addition measured after 3 hrs by spectrofluorimetry.
Chain of 72 kDa type IV collagenase (P08253 whole entry): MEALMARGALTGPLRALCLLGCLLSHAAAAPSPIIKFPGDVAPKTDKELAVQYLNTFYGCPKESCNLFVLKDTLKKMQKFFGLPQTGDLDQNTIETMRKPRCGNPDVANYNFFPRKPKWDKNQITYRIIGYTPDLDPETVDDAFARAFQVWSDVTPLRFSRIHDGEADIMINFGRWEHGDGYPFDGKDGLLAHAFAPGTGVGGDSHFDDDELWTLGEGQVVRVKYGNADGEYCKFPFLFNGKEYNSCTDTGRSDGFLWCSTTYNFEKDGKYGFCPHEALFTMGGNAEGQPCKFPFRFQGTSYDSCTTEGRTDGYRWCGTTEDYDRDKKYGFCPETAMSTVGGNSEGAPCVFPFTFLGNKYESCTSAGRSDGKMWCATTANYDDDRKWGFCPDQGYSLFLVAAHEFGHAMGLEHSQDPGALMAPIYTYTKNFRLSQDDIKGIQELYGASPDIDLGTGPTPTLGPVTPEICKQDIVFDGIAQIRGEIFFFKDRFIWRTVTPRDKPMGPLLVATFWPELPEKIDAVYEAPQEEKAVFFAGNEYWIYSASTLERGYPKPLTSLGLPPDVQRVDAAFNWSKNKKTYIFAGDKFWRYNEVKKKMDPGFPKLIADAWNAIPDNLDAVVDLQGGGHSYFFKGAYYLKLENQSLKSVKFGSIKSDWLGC
A further test deals with T1, Interstitial collagenase (Homo sapiens, UniProt P03956).
T1 sequence (P03956 whole entry): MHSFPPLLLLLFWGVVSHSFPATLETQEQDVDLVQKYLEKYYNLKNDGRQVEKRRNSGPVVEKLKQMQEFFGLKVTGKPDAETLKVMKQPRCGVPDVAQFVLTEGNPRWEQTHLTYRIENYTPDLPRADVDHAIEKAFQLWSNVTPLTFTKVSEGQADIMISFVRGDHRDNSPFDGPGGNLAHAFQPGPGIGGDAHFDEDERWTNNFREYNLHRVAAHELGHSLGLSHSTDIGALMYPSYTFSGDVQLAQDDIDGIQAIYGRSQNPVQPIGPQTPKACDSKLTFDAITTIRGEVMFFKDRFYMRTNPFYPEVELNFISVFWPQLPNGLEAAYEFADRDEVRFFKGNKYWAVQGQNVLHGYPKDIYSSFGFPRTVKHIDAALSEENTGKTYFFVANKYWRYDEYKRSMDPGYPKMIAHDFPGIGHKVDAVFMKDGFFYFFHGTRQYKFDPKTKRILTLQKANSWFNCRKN
Nature of the test: Inhibition of MMP1 catalytic domain using Mca-Pro-Leu-Gly-Leu-Dpa-Ala-Arg-NH2 as substrate preincubated for 1 hr prior substrate addition measured after 3 hrs by spectrofluorimetry.

A further test addresses Stromelysin-1 (Homo sapiens, UniProt P08254). Nature of the test: Inhibition of MMP3 catalytic domain using Mca-Pro-Leu-Gly-Leu-Dpa-Ala-Arg-NH2 as substrate preincubated for 1 hr prior substrate addition measured after 3 hrs by spectrofluorimetry.
The next test addresses Neutrophil collagenase (Homo sapiens, UniProt P22894). The experiment in a line: Inhibition of MMP8 catalytic domain using Mca-Pro-Leu-Gly-Leu-Dpa-Ala-Arg-NH2 as substrate preincubated for 1 hr prior substrate addition measured after 3 hrs by spectrofluorimetry.
For test [3], the target named is Macrophage metalloelastase (Homo sapiens, UniProt P39900). Nature of the test: Inhibition of MMP12 catalytic domain using Mca-Pro-Leu-Gly-Leu-Dpa-Ala-Arg-NH2 as substrate preincubated for 1 hr prior substrate addition measured after 3 hrs by spectrofluorimetry.
Chain of Macrophage metalloelastase (P39900 whole entry, the tested form may be a part): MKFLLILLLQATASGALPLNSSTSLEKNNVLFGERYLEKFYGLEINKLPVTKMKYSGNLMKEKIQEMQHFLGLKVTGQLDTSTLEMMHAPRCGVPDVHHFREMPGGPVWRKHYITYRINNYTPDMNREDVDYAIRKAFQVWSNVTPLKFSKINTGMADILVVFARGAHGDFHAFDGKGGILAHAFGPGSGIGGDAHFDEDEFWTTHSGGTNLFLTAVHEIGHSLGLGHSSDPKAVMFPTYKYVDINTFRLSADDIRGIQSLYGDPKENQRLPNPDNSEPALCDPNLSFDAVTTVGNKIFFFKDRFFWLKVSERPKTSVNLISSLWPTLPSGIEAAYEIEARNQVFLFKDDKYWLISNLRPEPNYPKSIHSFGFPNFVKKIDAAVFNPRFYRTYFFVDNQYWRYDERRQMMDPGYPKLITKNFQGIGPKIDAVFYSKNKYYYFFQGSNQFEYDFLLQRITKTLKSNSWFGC
In test [4] the target is Matrix metalloproteinase-14 (Homo sapiens, UniProt P50281). The experiment in a line: Inhibition of MMP14 catalytic domain using Mca-Pro-Leu-Gly-Leu-Dpa-Ala-Arg-NH2 as substrate preincubated for 1 hr prior substrate addition measured after 3 hrs by spectrofluorimetry.

Chain of Stromelysin-1 (P08254 whole entry, the tested form may be a part): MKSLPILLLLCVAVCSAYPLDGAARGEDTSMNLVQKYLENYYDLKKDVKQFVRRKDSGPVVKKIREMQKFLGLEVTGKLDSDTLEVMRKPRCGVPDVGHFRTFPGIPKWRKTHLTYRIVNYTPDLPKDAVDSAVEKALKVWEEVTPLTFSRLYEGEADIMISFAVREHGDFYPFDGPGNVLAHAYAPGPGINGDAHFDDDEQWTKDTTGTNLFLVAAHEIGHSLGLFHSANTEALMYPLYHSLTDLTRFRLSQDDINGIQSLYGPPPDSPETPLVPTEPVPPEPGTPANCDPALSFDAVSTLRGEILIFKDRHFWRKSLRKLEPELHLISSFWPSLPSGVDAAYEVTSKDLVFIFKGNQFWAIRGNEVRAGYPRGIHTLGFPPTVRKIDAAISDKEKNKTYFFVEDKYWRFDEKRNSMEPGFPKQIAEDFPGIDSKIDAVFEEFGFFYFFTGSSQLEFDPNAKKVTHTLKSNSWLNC
Chain of Neutrophil collagenase (P22894 whole entry, the tested form may be a part): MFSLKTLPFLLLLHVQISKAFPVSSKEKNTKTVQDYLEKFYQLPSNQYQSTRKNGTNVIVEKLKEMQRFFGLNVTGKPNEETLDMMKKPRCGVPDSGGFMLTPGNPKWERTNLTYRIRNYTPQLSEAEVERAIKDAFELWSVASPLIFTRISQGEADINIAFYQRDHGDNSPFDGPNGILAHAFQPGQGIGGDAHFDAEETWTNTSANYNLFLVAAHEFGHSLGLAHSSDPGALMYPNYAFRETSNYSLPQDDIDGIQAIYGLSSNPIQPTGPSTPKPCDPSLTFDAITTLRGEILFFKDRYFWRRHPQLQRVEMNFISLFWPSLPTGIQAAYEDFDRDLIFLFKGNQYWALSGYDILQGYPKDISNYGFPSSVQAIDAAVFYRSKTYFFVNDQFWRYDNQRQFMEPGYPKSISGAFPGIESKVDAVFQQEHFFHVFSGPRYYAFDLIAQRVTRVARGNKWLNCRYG
Chain of Matrix metalloproteinase-9 (P14780 whole entry, the tested form may be a part): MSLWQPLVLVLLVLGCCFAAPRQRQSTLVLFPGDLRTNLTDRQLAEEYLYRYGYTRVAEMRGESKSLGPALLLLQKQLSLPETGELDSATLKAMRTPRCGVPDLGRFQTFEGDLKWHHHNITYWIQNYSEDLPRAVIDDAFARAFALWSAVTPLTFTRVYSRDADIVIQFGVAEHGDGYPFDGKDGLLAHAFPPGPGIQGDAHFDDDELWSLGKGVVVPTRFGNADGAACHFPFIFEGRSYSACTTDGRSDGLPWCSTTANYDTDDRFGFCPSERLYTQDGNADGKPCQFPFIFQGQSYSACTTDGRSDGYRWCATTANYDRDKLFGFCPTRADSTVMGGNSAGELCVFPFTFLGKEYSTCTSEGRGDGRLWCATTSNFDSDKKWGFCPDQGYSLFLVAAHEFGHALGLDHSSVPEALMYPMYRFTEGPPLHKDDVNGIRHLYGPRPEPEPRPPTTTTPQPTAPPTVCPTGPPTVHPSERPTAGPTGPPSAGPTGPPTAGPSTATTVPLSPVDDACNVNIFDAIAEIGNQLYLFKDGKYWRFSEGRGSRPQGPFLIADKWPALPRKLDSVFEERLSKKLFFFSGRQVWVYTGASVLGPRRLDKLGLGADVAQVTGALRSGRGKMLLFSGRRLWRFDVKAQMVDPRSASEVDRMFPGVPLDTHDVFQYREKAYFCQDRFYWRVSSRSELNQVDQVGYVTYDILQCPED

In the case of `O=C(NO)[C@@H]1CSC(=O)N1Cc1ccc(-c2ccccc2)cc1`, the concentration for half-maximal inhibition (IC50) came to 47 µM in test [1] and 6.8 µM in test [2].
Consider `NC(=O)[C@@H]1CCC(=O)N1Cc1ccc(Cl)cc1`, for which the IC50 in test [2] was > 500 µM.
Regarding `O=C(O)[C@@H]1CCC(=O)N1Cc1ccc(-c2ccccc2)cc1`, the IC50 in test [2] was 340 µM.
Take `NC(=O)[C@H]1CCC(=O)N1Cc1ccccc1Cl`: the concentration for half-maximal inhibition (IC50) in test [2] was > 500 µM.
`O=C(NO)[C@@H]1CSCN1Cc1ccc(-c2ccccc2)cc1`: 330 µM corresponded to half-maximal inhibition in test [2] (IC50).
Take `CCCCCc1ccc(C(=O)Nc2ccc(S(=O)(=O)N(CCN3CCOCC3)[C@@H](C(=O)NO)C(C)C)cc2)cc1`: the 50% inhibitory concentration (IC50) in test [2] is < 0.0001 µM.
As for `O=C(NO)[C@@H]1CSCN1S(=O)(=O)c1ccc(Oc2ccc(Cl)cc2)cc1`, the IC50 on Interstitial collagenase was determined as 1 µM; in test [1] it was 0.016 µM; at Stromelysin-1, 0.16 µM; in test [2], 0.013 µM.
With `O=C(NO)[C@@H]1CSCN1S(=O)(=O)c1ccc(Oc2ccc(F)cc2)cc1`, the IC50 on Interstitial collagenase was > 50 µM; in test [1], 0.005 µM; at Stromelysin-1 it was 0.7 µM; in test [2], 0.01 µM.
For `O=C(NO)[C@@H]1CS(=O)(=O)CN1S(=O)(=O)c1ccc(Oc2ccc(Cl)cc2)cc1`, the IC50 on Neutrophil collagenase is 0.004 µM; in test [1], 0.0005 µM; in test [3], 0.019 µM; in test [2], 0.0008 µM; in test [4], 0.005 µM.
On to `NC(=O)[C@H]1CCC(=O)N1Cc1ccc(Cl)cc1`, for which the IC50 in test [2] is > 500 µM.
With `O=C(O)[C@H]1CCC(=O)N1Cc1ccc(Cl)cc1`, in test [2], the IC50 is > 500 µM.
Consider `O=C(NO)[C@H]1CCC(=O)N1Cc1ccc(Cl)cc1`, for which the IC50 was determined as 430 µM in test [1] and 400 µM in test [2].
For the molecule `O=C(NO)[C@@H]1CCCN1S(=O)(=O)c1ccc(-c2ccccc2)cc1`, the IC50 amounted to 76 µM in test [1] and 4 µM in test [2].
With `O=C(NO)[C@@H]1CCCN1Cc1ccc(-c2ccccc2)cc1`, the IC50 in test [2] was > 500 µM.
As for `O=C(NO)[C@H]1CCC(=O)N1Cc1ccccc1Cl`, the half-inhibitory concentration (IC50) in test [1] and in test [2] was > 500 µM each time.
Regarding `O=C(NO)[C@@H]1CSCN1S(=O)(=O)c1ccc(-c2ccccc2)cc1`, the 50% inhibitory concentration (IC50) in test [1] amounted to 0.23 µM; in test [2], 0.2 µM.
For the molecule `O=C(O)[C@H]1CCC(=O)N1Cc1ccccc1Cl`, in test [2], the IC50 is > 500 µM.
With `NC(=O)[C@H]1CCC(=O)N1Cc1ccc(-c2ccccc2)cc1`, the IC50 in test [2] is > 500 µM.
With `O=C(NO)[C@@H]1CS(=O)(=O)CN1S(=O)(=O)c1ccc(-c2ccccc2)cc1`, the IC50 was 2.5 µM on Interstitial collagenase; 0.1 µM against Neutrophil collagenase; 0.48 µM in test [1]; 4 µM at Stromelysin-1; 0.5 µM in test [3]; 0.053 µM in test [2]. The IC50 in test [4] is 3.8 µM.
Regarding `O=C(NO)[C@@H]1CSCN1S(=O)(=O)c1cccc2cccnc12`, the half-inhibitory concentration (IC50) in test [1] was 0.56 µM; in test [2] it was 0.71 µM.
In turn, `O=C(O)[C@@H]1CCC(=O)N1Cc1ccccc1Cl` had an IC50 in test [2] of 315 µM.
Regarding `COc1ccc(Oc2ccc(S(=O)(=O)N3CSC[C@H]3C(=O)NO)cc2)cc1`, the figures for the IC50 in test [1] and in test [2] were 0.002 µM and 0.009 µM, respectively.
With `O=C(NO)[C@H]1CCC(=O)N1Cc1ccc(-c2ccccc2)cc1`, the IC50 worked out at 30 µM in test [1] and 3 µM in test [2].
Consider `O=C(NO)[C@@H]1CSCN1S(=O)(=O)c1ccc2ccccc2c1`, for which the IC50 in test [1] is > 50 µM; in test [2], 31 µM.
Consider `O=C(NO)[C@@H]1C[C@@H](O)CN1Cc1ccc(-c2ccccc2)cc1`, for which, in test [2], the half-maximal inhibitory concentration (IC50) is > 500 µM.
Still for that read-out and setting: the value for `NC(=O)[C@@H]1CCC(=O)N1Cc1ccc(-c2ccccc2)cc1` was > 500 µM.
In the case of `O=C(NO)[C@@H]1CCC(=O)N1Cc1ccc(-c2ccccc2)cc1`, the IC50 worked out at 144 µM in test [1] and 9 µM in test [2].
For `O=C(O)[C@@H]1CCC(=O)N1Cc1ccc(Cl)cc1`, half-maximal inhibition in test [2] (IC50) required 383 µM.
Turning to `O=C(O)[C@H]1CCC(=O)N1Cc1ccc(-c2ccccc2)cc1`, in test [2], the midpoint of inhibition, the IC50, lay at 290 µM.
On to `O=C(NO)[C@@H]1C[S+]([O-])CN1S(=O)(=O)c1ccc(-c2ccccc2)cc1` (some centres not stated), for which the IC50 on Interstitial collagenase turned out to be 4 µM; against Neutrophil collagenase it was 0.4 µM; in test [1], 0.6 µM; against Stromelysin-1 it was 2 µM; in test [3] it was 2.5 µM; in test [2] it was 0.009 µM. In test [4], this molecule had an IC50 of 0.16 µM.
For the molecule `O=C(NO)[C@@H]1CCC(=O)N1Cc1ccc(Cl)cc1`, the IC50 in test [2] was > 500 µM.
With `O=C(NO)[C@@H]1CCC(=O)N1S(=O)(=O)c1ccc(-c2ccccc2)cc1`, the IC50 in test [1] worked out at 1.9 µM; in test [2], 1.7 µM.
`O=C(NO)[C@@H]1CCC(=O)N1Cc1ccccc1Cl`: the IC50 in test [2] is > 500 µM.
For the molecule `NC(=O)[C@@H]1CCC(=O)N1Cc1ccccc1Cl`, the IC50 in test [2] was > 500 µM.
